Assay results as given in US20230137849A1, “USE OF A COMPOUND OF THE DIURETICS CLASS FOR TREATING CANCER” (AZELEAD, priority 2017, published 2023).

Experiments:
4T1 cells [1] = format: cell-based, mouse; conditions: highest dose 100 μM, FIG. 8
Procedure: The cytotoxicity tests are carried out in cell culture in 96-well plates, on the 4T1 cell line. The cells are maintained in a DMEM culture medium supplemented with 10% fetal calf serum (control condition) or placed in the presence of an MTT solution (3-(4,5-dimethylthiazol-2-yl)-2,5-diphenyl tetrazolium bromide) at 1 mg/ml in DMEM medium supplemented with 10% fetal calf serum (100 μl per well). The cells are incubated at 37° C. and 5% CO2 for 4 hours. The reaction is stopped by the addition of 100 μl of a solution containing 10% of SDS and 0.01 M of HCl. The cells are placed in an incubator at 37° C. and 5% CO2 for 2 hours. The absorbance is measured between 570 and 590 nm. The negative control is performed on a well without cells, containing 200 μl of a 1 mg/ml solution of MTT diluted in DMEM culture medium supplemented with 10% fetal calf serum. The average of the measurements obtained is compared with the control wells: (average value of the compounds treated/average value of the controls)*100=% of the average value.
The 4T1 cells are derived from tumors of the mammary gland in mice.
In order to study the cytotoxic effects of althiazide in vitro, we analyze the cell death induced by treatment with althiazide by tetrazolium salt labeling MTT (3-(4,5-dimethylthiazol-2-yl)-2,5-diphenyltetrazolium bromide) on 4T1 cells. The amount of living cells in the well is assayed by spectrometry. The results are compared with those obtained after treatment with the control solution (FIG. 8). In this test, we observe a very low mortality of cells after treatment with althiazide (80% of living cells at the highest dose 100 μM). Cells treated with dasatinib have a much higher mortality rate, at much lower doses (80% live cells at the lowest 10 nM dose and 20% live cells at 100 μM).

4T1 cells [2] = experiment: 4T1 cell migration test (scratch test); format: cell-based, mouse; conditions: lowest concentration 10 nM, t=24 h, FIG. 8
Procedure: The cell migration assays on the 4T1 cell line are carried out in vitro in 12-well plates on the 4T1 cell line. The cells are maintained in DMEM culture medium supplemented with 10% calf serum (FCS) and incubated at 37° C. and 5% CO2. The cell monolayer is injured with a 10 μ pipette tip. The medium is aspirated and replaced by a medium containing the compounds to be tested at the concentrations described. The wells are imaged using a microscope and the injured surface is repaired at the indicated times to highlight the cell anti-migratory power of the tested chemical compounds. The average of the measurements obtained is compared with the control wells: (average value of the compounds treated/average value of the controls)*100=% of the average value.
In order to validate the anti-migratory potential of althiazide, we carry out a “scratch test” on 4T1 cells in culture according to the cell migration test protocol on the 4T1 cell line described in the Materials and Methods section. This test is used to evaluate the migratory power of a chemical compound on cells in culture. […]
The area of the injured area is measured for each well and the percentage of migration is calculated under each condition.

N-CADHERIN = experiment: q-RT-PCR expression of EMT markers in MDA-MB-231 cells under hypoxia: N-CADHERIN; format: cell-based, human; conditions: althiazide 100 μM, hypoxic conditions (1% O2), vs control, FIG. 11
Procedure: (§1) The cell cultures are carried out on human breast cancer epithelial cell lines MDA-MB-231 (HTB-26™), resulting from metastases present in a pleural effusion of a patient with a mammary adenocarcinoma. This line is used as a triple negative cancer cell model (no expression of ER-type nuclear estrogen receptors, nuclear progesterone receptors or overexpression of the oncogene encoding HER2 protein (Human Epidermal Growth factor Receptor-2).
(§2) The cells were cultured in DMEM medium (Eurobio, Fance) supplemented with 10% fetal calf serum (FCS) (Eurobio, Fance) at 37° C., 5% CO2. The medium was changed every 3 days.
(§3) The cells were placed in a controlled atmosphere at 1% oxygen 24 hours before the application of the different treatments.
(§4) The expression of the mRNAs is measured by the q-RT-PCR method. The cells were seeded at the density of 500,000 cells/well in 6-well plates. After 24 hours at 37° C., 5% CO2 and 1% O2, the medium was renewed and added the various treatments. RNA was isolated using TRI Reagent® (sigma), assayed and retro-transcribed into complementary DNA using the PrimeScript RT Reagent Kit (Takara). The expression levels of the mRNA of the genes of interest were determined by quantitative PCR (LightCycler® 480 Instrument II) with the primers listed in Table 2: […]
(§5) The results are calculated using the Delta Delta Ct (Δ ΔCt) method.

E-CADHERIN = experiment: q-RT-PCR expression of EMT markers in MDA-MB-231 cells under hypoxia: E-CADHERIN; format: cell-based, human; conditions: althiazide 100 μM, hypoxic conditions (1% O2), vs control, FIG. 11
Procedure: as §1, §2, §3, §4, §5

[3] = Solubilization of althiazide and enantiomers without DMSO; format: physicochemical; conditions: no DMSO
Procedure: Solubilization of althiazide and enantiomers was achieved by solubilization in a solvent of 95% 1M Tris pH 10.8 and supplemented with 5% pure ethanol.
Althiazide and enantiomers are resuspended at a concentration of 2 mg/ml. Each of the solutions is vortexed for 30 seconds and then placed in an ultrasound bath for a sonication of 5min; this operation is repeated once. The dissolution is complete despite the absence of DMSO.
The solubilization of althiazide and enantiomers was also obtained by solubilization in a solution consisting of a mixture of 3.7% of NaHCO3, 0.2M and 21% of Na2CO3 0.2M at pH 10.6 and supplemented with pure water. Althiazide and enantiomers are resuspended at a concentration of 2.5 mg/ml. Each of the solutions is vortexed for 30 seconds and then placed in an ultrasound bath for a sonication of 1 min. The dissolution is complete despite the absence of DMSO.

C=CCSCC1Nc2cc(Cl)c(S(N)(=O)=O)cc2S(=O)(=O)N1 (racemic) [althiazide]
living cells (MTT) (4T1 cells [1]): 80% | decrease in cell migration (4T1 cells [2]): 40% | change in expression of N-CADHERIN (N-CADHERIN): −33% | increase in E-CADHERIN expression (E-CADHERIN): 73% | dissolution ([3]; 2 mg/ml in 95% 1M Tris pH 10.8 + 5% pure ethanol, vortex and sonication): complete | dissolution ([3]; 2.5 mg/ml in 3.7% NaHCO3 0.2M + 21% Na2CO3 0.2M at pH 10.6 and pure water): complete
